Values joined by “and” are separate entries in the source; they are usually repeats but may differ in a detail not shown here. Equal values may be shown once. Numbers after ± are expanded uncertainties.

A short description of this data set: molar heat capacity at constant pressure. The note with it: 298.15 K; 101.33 kPa; Liquid; Large sample (1 g) DSC.
As to `[2H]C([2H])([2H])C(=O)C([2H])([2H])[2H]` [(D6)-2-propanone], the “molar heat capacity at constant pressure” value was 134.94 ± 2.7 J/K/mol and 133.6 ± 2.7 J/K/mol.

With `[2H]C([2H])([2H])S(=O)C([2H])([2H])[2H]` [(methyl sulfoxide)-d6], the “molar heat capacity at constant pressure” value was 165.76 ± 3.3 J/K/mol and 163.87 ± 3.3 J/K/mol.

In the case of `[2H]C(=O)N(C([2H])([2H])[2H])C([2H])([2H])[2H]` [N,N-dimethylformamide-d7], the “molar heat capacity at constant pressure” value was 160.5 ± 3.2 J/K/mol and 159.47 ± 3.2 J/K/mol.

Turning to `CC(C)=O` [acetone], the “molar heat capacity at constant pressure” value is 122.74 ± 2.5 J/K/mol and 120.73 ± 2.4 J/K/mol.

For `[2H]C([2H])([2H])C#N` [acetonitrile-d3], the “molar heat capacity at constant pressure” value was 95.74 ± 1.9 J/K/mol and 95.02 ± 1.9 J/K/mol.

Consider `CC#N` [acetonitrile], for which the “molar heat capacity at constant pressure” value is 89.62 ± 1.8 J/K/mol and 88.57 ± 1.8 J/K/mol.

In the case of `[2H]c1c([2H])c([2H])c([2H])c([2H])c1[2H]` [benzene-d6], the “molar heat capacity at constant pressure” value is 152.18 ± 3 J/K/mol and 149.82 ± 3 J/K/mol.

`c1ccccc1` [benzene]: the “molar heat capacity at constant pressure” value was 133.82 ± 2.7 J/K/mol and 132.11 ± 2.6 J/K/mol.

As for `[2H]C(Cl)(Cl)Cl` [chloroform-d], the “molar heat capacity at constant pressure” value is 114.94 ± 2.3 J/K/mol and 111.98 ± 2.2 J/K/mol.

As for `[2H]C1([2H])C([2H])([2H])C([2H])([2H])C([2H])([2H])C([2H])([2H])C1([2H])[2H]` [cyclohexane-d12], the “molar heat capacity at constant pressure” value is 185.6 ± 3.7 J/K/mol and 182.57 ± 3.6 J/K/mol.

In the case of `C1CCCCC1` [cyclohexane], the “molar heat capacity at constant pressure” value was 154.34 ± 3.1 J/K/mol and 150.73 ± 3 J/K/mol.

On to `[2H]C([2H])(Cl)Cl` [dichloromethane-d2], for which the “molar heat capacity at constant pressure” value was 103.08 ± 2.1 J/K/mol and 101.49 ± 2 J/K/mol.

Consider `ClCCl` [dichloromethane], for which the “molar heat capacity at constant pressure” value was 97.97 ± 2 J/K/mol and 95.61 ± 1.9 J/K/mol.

Consider `C[S+](C)[O-]` [dimethyl sulfoxide], for which the “molar heat capacity at constant pressure” value is 150.74 ± 3 J/K/mol and 149.05 ± 3 J/K/mol.

Turning to `CN(C)C=O` [dimethylformamide], the “molar heat capacity at constant pressure” value is 145.78 ± 2.9 J/K/mol and 144.02 ± 2.9 J/K/mol.

In the case of `[2H]C([2H])([2H])O` [methanol-d3], the “molar heat capacity at constant pressure” value was 86.07 ± 1.7 J/K/mol and 84.91 ± 1.7 J/K/mol.

Consider `[2H]OC([2H])([2H])[2H]` [methanol-d4], for which the “molar heat capacity at constant pressure” value is 89.03 ± 1.8 J/K/mol and 87.75 ± 1.8 J/K/mol.

For `CO` [methanol], the “molar heat capacity at constant pressure” value is 80.58 ± 1.6 J/K/mol and 79.07 ± 1.6 J/K/mol.

Regarding `[2H]c1c([2H])c([2H])c(C([2H])([2H])[2H])c([2H])c1[2H]` [toluene-d8], the “molar heat capacity at constant pressure” value is 176.77 ± 3.5 J/K/mol and 174.28 ± 3.5 J/K/mol.

As to `Cc1ccccc1` [toluene], the “molar heat capacity at constant pressure” value was 154.75 ± 3.1 J/K/mol and 152.53 ± 3 J/K/mol.

On to `ClC(Cl)Cl` [trichloromethane], for which the “molar heat capacity at constant pressure” value was 112.71 ± 2.2 J/K/mol and 110.74 ± 2.2 J/K/mol.

Source of the values: the NIST ThermoML archive (doi:10.1016/j.jct.2008.06.008).
